According to article PMC10888717, “Identification of Novel Non-Nucleoside Inhibitors of Zika Virus NS5 Protein Targeting MTase Activity” (International Journal of Molecular Sciences, 2024):
One block for each compound: values may come before it.

Columns and labels:
ZIKV NS5 MTase = biological target: T1, ZIKV NS5 MTase (Zika virus, UniProt A0A024B7W1); assay: ZIKV NS5 MTase radioactive filter-binding assay (2′-O-MTase activity); type: biochemical; details: at least two experiments; for IC50: read-out: IC50 (half-maximal inhibitory enzymatic concentration)
T1 construct: KJ776791.2, aa 4–278; His6 (N); made in house; host or cells: Escherichia coli T7 Express Iq
T1 sequence (A0A024B7W1 2524-2798): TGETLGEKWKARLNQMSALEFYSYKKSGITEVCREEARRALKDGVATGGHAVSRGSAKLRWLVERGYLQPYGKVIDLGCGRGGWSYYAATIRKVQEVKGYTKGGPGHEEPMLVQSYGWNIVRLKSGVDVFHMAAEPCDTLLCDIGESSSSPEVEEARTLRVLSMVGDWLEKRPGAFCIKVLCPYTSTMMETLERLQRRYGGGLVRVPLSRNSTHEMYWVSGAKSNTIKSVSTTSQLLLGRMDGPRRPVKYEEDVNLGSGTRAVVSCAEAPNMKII
Protocol: Selected compounds were evaluated in enzymatic inhibition assays against both ZIKV and DENV 2′-O-MTase activity (For details, see Figure S3 in Supplementary Materials). The screening of compounds at a concentration of 50 µM highlighted a higher inhibitory activity against ZIKV MTase. We thus focused our efforts on ZIKV and determined the IC50 values against ZIKV MTase.
Expression and purification of ZIKV NS5 MTase: The coding sequence of the ZIKV NS5 MTase domain (strain H/PF/2013, GenBank accession no. KJ776791.2, aa 4–278) was synthesized by Genscript and cloned into a pQE30 vector (Qiagen, Hilden, Germany) with an N-terminal His6 tag. The protein was expressed and purified following the procedures described in Coutard et al..
Briefly, after expression in Escherichia coli T7 Express Iq (New England BioLabs) in Terrific Broth at 17 °C overnight, bacterial pellets were resuspended in lysis buffer (50 mM Tris-HCl [pH 8], 300 mM NaCl, 5% glycerol, 0.1% Triton, 10 μg/mL DNase I, 2 tablets of EDTA-free antiprotease cocktail [Roche] and 0.25 mg/mL lysozyme). Following cell lysis and clarification, the protein was purified by affinity on immobilized metal affinity chromatography (IMAC, His prep column [GE Healthcare]), followed by size exclusion chromatography (Superdex S75 HR 16/20 column [GE Healthcare]). The NS5-MTase was concentrated and stored at −20 °C after adding glycerol to a final concentration of 40%.
Filter-binding assay: The transfer of tritiated methyl from ^[3H]SAM onto RNA substrate was monitored by a filter-binding assay (FBA), performed according to the method described previously. FBA was carried out in a reaction mixture [40 mM Tris-HCl (pH 8.0), 1 mM DTT, 2 μM SAM, and 0.1 μM 3H-SAM (Perkin Elmer, Shelton, CT, USA)] in the presence of 0.7 μM synthetic ^7mGpppAC4 and ZIKV NS5 MTase (500 nM). The enzyme was first mixed with an increasing concentration of inhibitors, previously suspended in dimethyl sulfoxide (DMSO), before the addition of RNA substrate and SAM, and then incubated at 30 °C. The final DMSO concentration in reactions was 5%. Reaction mixtures were stopped after 30 min incubation by their 10-fold dilution in ice-cold water. Samples were transferred to diethylaminoethyl (DEAE) filtermat (Perkin Elmer, Shelton, CT, USA) using a Filtermat Harvester (Packard Instruments, Meriden, CT, USA). The RNA-retaining mats were washed twice with 10 mM ammonium formate pH 8.0, twice with water, and once with ethanol before drying. They were soaked with scintillation fluid (Perkin Elmer, Shelton, CT, USA), and 3H-methyl transfer to the RNA substrates was determined using a Wallac MicroBeta TriLux Liquid Scintillation Counter (Perkin Elmer, Shelton, CT, USA). For IC50 measurements, values were normalized and fitted with Prism (GraphPad software version 10.1.1) using the following equation: Y = 100/(1 + ((X/IC50) ^ Hillslope)).

ZIKV [1] = assay: ZIKV inhibitory viral plaque reduction assay in Vero E6 cells; type: cell-based, Zika virus; details: for SI (Selectivity Index, ratio between CC50 and IC50): VERO E6 cells; for IC50: Zika virus, Vero C1008, read-out: IC50 ± SD (half-maximal inhibitory concentration, ZIKV plaque reduction)
[2] = Cytotoxicity assay (MTT) on Vero E6 cells; type: cell-based; details: African green monkey; VERO E6 cells, MTT, 3 days; read-out: CC50 ± SD (half-maximal cytotoxic concentration)
Protocol: Compounds characterized by the best anti-enzymatic activity were tested against ZIKV in cellular assays. VERO E6 cells were infected with ZIKV at a multiplicity of infection (M.O.I.) of 0.1, and their activities were evaluated by a plaque reduction assay three days post-infection. Ribavirin was used as a reference compound. As reported in Table 2, compound 1, identified in the first screening, was unable to inhibit viral replication up to a 100 μM concentration. […] The cytotoxicity of the series was determined on the same cell line. […] Their selectivity indexes were calculated as the ratio between CC50 and IC50 values; the results highlight their promising safety profile.
Monolayers of 2.5 × 10^4 Vero E6 cells per well were grown in flat-bottom 96-well culture plates and allowed to adhere overnight. Then, when the cell layers were confluent, the medium was removed, the wells were washed twice with PBS, treated with 100 µL of DMEM with 10 µL DMSO alone (cell positive control) or with various concentrations of anti-NS5 inhibitory compounds under study (compound final concentrations of 100, 10, 1, 0.1, and 0.01 μM), and incubated for 3 days at 37 °C in a CO2. After treatment, an MTT (3-(4,5-dimethylthiazol-2-yl)-2,5-diphenyltetrazolium bromide) kit (Roche, Milan, Italy) was used according to the supplier’s instructions, and the absorbance of each well was determined using a microplate spectrophotometer at a wavelength of 570 nm. Cytotoxicity was calculated by dividing the average optical density of treated samples by the average of DMSO-treated samples (cell positive control).

[3] = Metabolic stability in human liver microsomes; type: in vitro ADME; details: 1 h, 37 °C, three experiments
Protocol: The metabolic stability was investigated by incubating selected compounds with human liver microsomes (HLMs) for 1 h at 37 °C. The percentage of non-metabolized compounds and metabolites was analyzed by HPLC-UV-MS. […] HPLC analysis confirmed the presence of the oxidated metabolites in small percentages.
(§1) For the ADME property determination, an Agilent 1260 Infinity HPLC-DAD interfaced with an Agilent MSD 6130 (Agilent Technologies, Palo Alto, CA, USA) was used. Chromatographic conditions were optimized using a Phenomenex Kinetex C18-100 Å column (150 × 4.6 mm) with 5 µm particle size and gradient elution with a binary solution (eluent A: H2O; eluent B: ACN; both eluents were acidified with formic acid 0.1% v/v) at room temperature. The LC analyses started with 5% of B (from t = 0 to t = 1 min), then B was increased to 95% (from t = 1 to t = 10 min) and then kept at 95% (from t = 10 to t = 19 min) and finally returned to initial conditions in 1.0 min. The flow rate was 0.6 mL/min and the injection volume was 10 µL.
The test was performed as previously reported with minor modifications. Each compound was dissolved in DMSO and phosphate buffer (0.025 M, pH 7.4), and human liver microsomes (0.2 mg/mL) and a NADPH-regenerating system in MgCl2 48 mM were added to a final volume of 500 µL. This solution was incubated for 1 h at 37 °C and then the reaction was stopped and quenched using 1 mL of ACN. The reaction mixtures were then centrifuged (4000 rpm for 10 min) and the supernatant was taken, dried under nitrogen flow, and then resuspended in 100 µL of methanol. The parent drug and metabolites were subsequently determined using the chromatographic conditions described above. The percentage of non-metabolized compounds was calculated by comparison with reference solutions. The determination of metabolic stability for each compound was performed in three independent experiments.

[4] = Stability test in human plasma; type: in vitro ADME; details: pH 7.4, 37 °C, up to 24 h, read-out: Plasma Stab. (T1/2, h ± SD) (converted)
Protocol: Finally, compounds were incubated in human plasma at 37 °C for 24 h. […] Taken together, stability studies confirmed that the series is suitable for further development.
as §1
A stock solution of the target compound in DMSO (2 mM) was incubated in a test tube with pooled human plasma (55.7 mg protein/mL) and HEPES buffer (25 mM, 140 mM NaCl pH 7.4) up to a final volume of 1.0 mL. The mixture was incubated at 37 °C, and at set time points (0.0, 0.5, 1, 4, 8, 24 h), samples of 50 µL were taken, mixed with 400 µL of ACN to stop the reaction of plasmatic esterases, and centrifuged at 5000 rpm for 15 min. The supernatant was removed and analyzed using the LC-UV/MS method previously described. The half-life (t½) was calculated according to the following equation: t½=ln 2/k where k represents the substrate elimination constant. For each compound, the determination was performed in three independent experiments.

ZIKV [5] = details: read-out: in vitro EC50 against ZIKV; cited from earlier work

IC50 (half-maximal inhibitory enzymatic concentration) (ZIKV NS5 MTase): completely abolished the activity
IC50 (ZIKV NS5 MTase): > 100 µM
SMILES: CNC(=O)c1cccc(NC(=O)c2cc3ccccc3s2)c1 [Compound 12]

IC50 (ZIKV NS5 MTase): 50 µM
SMILES: O=C(O)c1ccc(NC(=O)c2cc3cc([N+](=O)[O-])ccc3s2)cc1 [Compound 6]

SMILES: CN1C(=O)c2ccc(NC(=O)c3cc4cc(Cl)ccc4s3)cc2C1=O [Compound 15]
IC50 (ZIKV NS5 MTase): 14.2 µM
SI (Selectivity Index, ratio between CC50 and IC50) (ZIKV [1]): >71.43
IC50 (ZIKV [1]): 1.4 ± 0.3 µM
CC50 at 3 days [2]: > 100 µM
HLM Stab.% ± SD (percentage of non-metabolized compound) [3]: 98.57 ± 0.07%
half-life [4]: > 24 h

IC50 (ZIKV NS5 MTase): 100 µM
SMILES: CN1C(=O)c2ccc(NC(=O)c3cc4c(Cl)cccc4s3)cc2C1=O [Compound 18]

IC50 (ZIKV NS5 MTase): 31 µM
SMILES: CN1C(=O)c2ccc(NC(=O)c3cc4ccccc4s3)cc2C1=O [Compound 14]

IC50 (ZIKV NS5 MTase): 57 µM
SMILES: O=C(Nc1ccccc1)c1cc2cc([N+](=O)[O-])ccc2s1 [Compound 7]

SMILES: CCN(CC)CCCC(C)Nc1ccnc2cc(Cl)ccc12 (stereo not shown) [chloroquine]
EC50 (ZIKV [5]): ~5 µM

SMILES: CN1C(=O)c2ccc(NC(=O)c3cc4cc([N+](=O)[O-])ccc4o3)cc2C1=O [Compound 8]
IC50 (ZIKV NS5 MTase): 22.6 µM
SI (Selectivity Index, ratio between CC50 and IC50) (ZIKV [1]): >52.63
IC50 (ZIKV [1]): 1.9 ± 0.3 µM
CC50 at 3 days [2]: > 100 µM
HLM Stab.% ± SD (percentage of non-metabolized compound) [3]: 96.93 ± 0.57%
half-life [4]: 7.31 ± 0.17 h

IC50 (ZIKV NS5 MTase): 40 µM
SMILES: Cc1ccc2sc(C(=O)Nc3ccc4c(c3)C(=O)N(C)C4=O)cc2c1 [Compound 19]

IC50 (half-maximal inhibitory enzymatic concentration) (ZIKV NS5 MTase): completely abolished the activity
IC50 (ZIKV NS5 MTase): > 100 µM
SMILES: CNC(=O)c1ccc(NC(=O)c2cc3ccccc3s2)cc1 [Compound 11]
